Structures can show the parent of a compound that is named as a salt.
Test: Hygroscopicity by dynamic vapor sorption (DVS)
Assay type: physicochemical
Conditions: for water absorbed (DVS): 25° C. and 95% RH; for hygroscopicity (DVS analysis), in words: 25° C.
Protocol: Hygroscopicity was studied using dynamic vapor sorption (DVS, TA Q5000 SA, TA Instruments, New Castle, Del. or DVS, DVS Intrinsic, Surface Measurement Systems, London, UK). A sample (2-20 mg) was placed in an aluminum DVS pan and loaded on the sample side of the twin pan balance. The water sorption and desorption were studied as a function of relative humidity (RH) at 25° C. In 10% RH increments, the relative humidity was increased from 5% RH to 95% RH and then decreased back to 5%. […] Data analysis was performed using Universal Analysis 2000 Version 4.7A (TA Instruments, New Castle, Del.) for TA DVS runs and Microsoft Excel for SMS DVS runs.

[1] = for Mono-BSA Form I up to 85% RH

SMILES	water absorbed (DVS)	hygroscopicity (DVS analysis), in words [1]	water uptake (DVS) (90% RH at 25° C.)	water uptake (DVS) (85% RH at 25° C.)	hygroscopicity (DVS analysis), in words (above 85% RH, led to deliquescence)
Nc1cncc(-c2cn3ccnc3c(Nc3ccc(N4CCN(C5COC5)CC4)cc3)n2)n1 [Compound I Form I, 6-(6-aminopyrazin-2-yl)-N-(4-(4-(oxetan-3-yl)piperazin-1-yl)phenyl)imidazo[1,2-a]pyrazin-8-amine]	about 0.8 wt. %	slightly hygroscopic			
Nc1cncc(-c2cn3ccnc3c(Nc3ccc(N4CCN(C5COC5)CC4)cc3)n2)n1 [Compound I Form II, 6-(6-aminopyrazin-2-yl)-N-(4-(4-(oxetan-3-yl)piperazin-1-yl)phenyl)imidazo[1,2-a]pyrazin-8-amine]	about 2 wt. %	slightly hygroscopic			
Nc1cncc(-c2cn3ccnc3c(Nc3ccc(N4CCN(C5COC5)CC4)cc3)n2)n1 [Compound I Form V, 6-(6-aminopyrazin-2-yl)-N-(4-(4-(oxetan-3-yl)piperazin-1-yl)phenyl)imidazo[1,2-a]pyrazin-8-amine]	about 0.5 wt. %	slightly hygroscopic			
Nc1cncc(-c2cn3ccnc3c(Nc3ccc(N4CCN(C5COC5)CC4)cc3)n2)n1 [Compound I Hemi-Succinate Form I, 6-(6-aminopyrazin-2-yl)-N-(4-(4-(oxetan-3-yl)piperazin-1-yl)phenyl)imidazo[1,2-a]pyrazin-8-amine]		slightly hygroscopic	about 0.4 wt. %		

Second part, the molecule after the results:

water absorbed (DVS)	hygroscopicity (DVS analysis), in words [1]	water uptake (DVS) (90% RH at 25° C.)	water uptake (DVS) (85% RH at 25° C.)	hygroscopicity (DVS analysis), in words (above 85% RH, led to deliquescence)	SMILES
> 15 wt. %	slightly hygroscopic		about 1.5 wt. %	very hygroscopic	Nc1cncc(-c2cn3ccnc3c(Nc3ccc(N4CCN(C5COC5)CC4)cc3)n2)n1 [Compound I Mono-BSA Form I, 6-(6-aminopyrazin-2-yl)-N-(4-(4-(oxetan-3-yl)piperazin-1-yl)phenyl)imidazo[1,2-a]pyrazin-8-amine]
	very hygroscopic	about 16 wt. %			Nc1cncc(-c2cn3ccnc3c(Nc3ccc(N4CCN(C5COC5)CC4)cc3)n2)n1 [Compound I Mono-HCl salt Form II, 6-(6-aminopyrazin-2-yl)-N-(4-(4-(oxetan-3-yl)piperazin-1-yl)phenyl)imidazo[1,2-a]pyrazin-8-amine]
	moderately hygroscopic	about 2.1 wt. %			Nc1cncc(-c2cn3ccnc3c(Nc3ccc(N4CCN(C5COC5)CC4)cc3)n2)n1 [Compound I Sesqui-Adipate Form I, 6-(6-aminopyrazin-2-yl)-N-(4-(4-(oxetan-3-yl)piperazin-1-yl)phenyl)imidazo[1,2-a]pyrazin-8-amine]

Source: US11339168B2, “Crystalline forms of 6-(6-aminopyrazin-2-yl)-N-(4-(4-(oxetan-3-yl)piperazin-1-yl)phenyl)imidazo[1,2-a]pyrazin-8-amine as Syk inhibitors” (Kronos Bio, Inc., priority 2019, dated 2022)
